Legend:
philtrum skin = philtrum skin cooling bioassay (subjective coolness rating 0-3); type: in vivo, human; settings: 49% distilled water, 1% ethanol
From the text: The term “alcoholic solvent” refers to a chemical with one to four carbons with at least one hydroxyl group attached to a carbon atom. A reliable place for topical application is the skin above the upper lip (above the vermilion border of the lips), on the philtrum, lateral to the philtrum until the nasolabial folds, and on the lower nostrils (subnasale). This part of the face is known to be densely innervated with cold receptors, second only to the surfaces of the eyeball and anogenitalia. Tingling, cool and cold sensations from the skin may be experienced and rated for time of onset and intensity.
The intervals for recording sensations are 5 to 10 minutes, until two successive zeros are obtained. The results (shown in the Figures) are averaged values of 4 to 6 separate trials in the same individual. The data are plotted using SigmaPlot (Systat Software, Point Richmond, Calif.) and a smoothing function with a negative exponential was used for analysis and statistical fit of the results. The onset of drug action is taken as the time to reach 2 units of coolness intensity, and offset of drug action is the time when coolness intensity drops below 2, after previously surpassing 2 units. […] The duration of cooling action is defined as the offset time minus the onset time and the primary index of effect. As described in Examples, the test compounds were tested at 2 to 10 mg/mL of vehicle.
For assays on the skin, the cooling agent(s) was dissolved in the alcoholic solvent to yield a 2, 2.5, 3, 5 or 10 mg/mL solution. Using a cotton-tipped applicator (e.g. Q-tips®) 0.10 to 0.25 mL of the test solution was applied to the skin above the upper lip, on the philtrum, and lateral to the philtrum up to the nasolabial folds, and the onset and duration of cooling sensations noted. […] The interval for recording sensations was at 5 to 10 minute intervals, until at least two successive zeros were obtained. The results were averaged values of 3 to 6 separate trials in the same individual. The “onset” is the time taken to reach a coolness intensity value of 2. […] The “off-set” is when the coolness intensity drops below 2, and the duration is the time of off-set minus the time of onset. The area under the curve (AUC) gives an estimate of the intensity and duration of drug action and can be obtained from the plotted data using SigmaPlot (Systat Software, Point Richmond, Calif.). The AUC unit is the product of cooling intensity x min.

[1] = target: T1, cloned hTRPM8 channel (human TRPM8 gene, expressed in CHO cells) (Homo sapiens, UniProt Q7Z2W7); assay: agonist activity on cloned hTRPM8 channel, Fluo-8 calcium kit, FLIPR; type: cell-based; settings: TRPM8 receptor assay
T1 construct: host or cells: CHO cells
Description: The in vitro effects of test articles were evaluated on cloned hTRPM8 channel (encoded by the human TRPM8 gene, expressed in CHO cells) using a Fluo-8 calcium kit and a Fluorescence Imaging Plate Reader (FLIPR^TETRA™) instrument. […] The total number of carbons in these trialkylphosphine oxides ranged from 12 to 15.
To further examine solvent-receptor interactions, stock solutions of 1-7 [1-(Diisopropyl-phosphinoyl)-heptane] were prepared in dimethyl sulfoxide (DMSO) or DMSO containing 10% or 30% by volume of the three isomers of 1,2-propanediol, (R/S-PD, R-PD, and S-PD) and stored frozen. Six dose levels were tested ranging from 0.003 to 3 μM. Ten μl of the test article solution were added to 40 μl of cells in HBPS in glass-lined 384-well compound plates, and placed into the FLIPR instrument for the fluorescence readout (Molecular Devices Corporation, Union City, Calif.).

[2] = tested on: periorbital skin and skin above the cheekbone; assay: cosmetic wipe over periorbital skin and skin above the cheekbone, six female subjects; type: in vivo, human; settings: 10 mg/mL in water (50%), 10% (S)-, 40% (R)-1,2-propanediol
Description: Six female subjects working at a cosmetics company volunteered to try topical applications of 1-7 and/or 1-8, formulated at 10 mg/mL in water (50%) and 10% (S)-1,2-propanediol, 40% (R)-1,2-propanediol wt/wt. The liquid was put on a cotton square and wiped over the periorbital skin and the skin above the cheekbone. All the subjects remarked on a refreshing coolness on the skin at the sites of application within 2 min after application. There was a “wow” effect, that was considered pleasant and stimulating. […] Four of the six subjects said they felt more “awake and energetic.”

[3] = tested on: itchy scalp, seborrheic dermatitis; assay: topical application to itchy scalp in seborrheic dermatitis, one subject; type: in vivo, human; settings: 10 mg/mL in 12% (S)-1,2-propanediol, 37% (R)-1,2-propanediol, 1% ethanol, 50% water
Description: A subject with severe seborrheic dermatitis complained of an itchy scalp which was not resolved with anti-dandruff shampoos. […] The delivery was made using a 20 mL reservoir bottle capped with a Yorker spout. They remarked that routine application of the solution on an “as needed basis” stopped the itch for 6 to 8 hours and repeat applications for one week allowed their scalp to feel refreshed and normal. They proposed to pay for a continued supply of the solution.

T1 sequence (Q7Z2W7 whole entry): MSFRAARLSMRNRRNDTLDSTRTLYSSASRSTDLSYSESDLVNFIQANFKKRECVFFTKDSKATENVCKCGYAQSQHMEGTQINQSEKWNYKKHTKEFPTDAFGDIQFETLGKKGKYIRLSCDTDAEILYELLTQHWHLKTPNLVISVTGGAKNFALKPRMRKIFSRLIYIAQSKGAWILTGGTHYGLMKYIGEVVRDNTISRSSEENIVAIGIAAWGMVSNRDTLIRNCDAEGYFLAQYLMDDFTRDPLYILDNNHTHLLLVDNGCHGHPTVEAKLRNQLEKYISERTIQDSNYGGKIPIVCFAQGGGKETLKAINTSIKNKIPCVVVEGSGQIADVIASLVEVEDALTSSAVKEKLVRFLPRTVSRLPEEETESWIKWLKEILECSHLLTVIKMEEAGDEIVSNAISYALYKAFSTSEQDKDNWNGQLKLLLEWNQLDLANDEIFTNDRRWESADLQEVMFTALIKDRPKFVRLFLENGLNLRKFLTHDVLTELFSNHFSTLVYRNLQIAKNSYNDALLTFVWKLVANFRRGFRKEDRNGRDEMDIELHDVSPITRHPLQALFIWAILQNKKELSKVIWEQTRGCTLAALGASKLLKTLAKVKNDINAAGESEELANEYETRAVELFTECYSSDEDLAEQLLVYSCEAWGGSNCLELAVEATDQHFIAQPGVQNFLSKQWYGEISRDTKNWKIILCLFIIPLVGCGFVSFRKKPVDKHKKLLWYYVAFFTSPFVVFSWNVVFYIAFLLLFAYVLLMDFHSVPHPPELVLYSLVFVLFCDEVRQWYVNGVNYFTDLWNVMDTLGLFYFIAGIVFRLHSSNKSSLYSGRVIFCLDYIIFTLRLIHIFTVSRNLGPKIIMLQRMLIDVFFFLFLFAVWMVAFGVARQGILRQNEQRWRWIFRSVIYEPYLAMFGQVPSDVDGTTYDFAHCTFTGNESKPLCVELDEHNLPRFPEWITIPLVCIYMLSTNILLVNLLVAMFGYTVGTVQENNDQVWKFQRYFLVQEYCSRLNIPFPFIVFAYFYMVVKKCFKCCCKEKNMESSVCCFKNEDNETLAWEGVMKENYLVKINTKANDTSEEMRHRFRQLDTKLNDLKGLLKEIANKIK

- Potency Relative to I-menthol [1]: 5.4
- EC50 ([1]; read-out: EC50 μM (95% C, L.)): 0.7 µM
Structure (SMILES): CCCCCCCCP(=O)(C(C)C)C(C)C [1-8]
- Ratio of AUC 75/25% R/S to 25/75% R/S (fold increase in cooling activity) (philtrum skin): 1.5
- irritation or redness on the skin after applications [2]: no irritation or redness
- time facial skin felt cool and dry after application ([2]; all subjects): at least one hour
- duration for which itch was stopped [3]: 6 to 8 h

Reference: US20150105349A1, “(R)-(-)-1,2-propanediol compositions and methods” (priority 2013, published 2015)
